The results in this text go back to PubChem BioAssay (NCI).

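Test compounds were applied to cells in 96-well plates for 48 hours at 5 doses. At the GI50, growth is halved. At the TGI there is no net growth.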 Where only a bound is given, the exact number is not on record here.

Test systems include SK-MEL-28 melanoma; A498 renal; HCT-15 colon; SK-OV-3 ovarian; HCT-116 colon; M14 melanoma; HL-60(TB) leukemia; UACC-257 melanoma; SF-295 CNS; BT-549 breast.
Common to all, as to assay: NCI-60 cell line screen, 48 h

In the case of `O=C(O)CS(=O)(=O)C(c1ccccc1)c1ccccc1`, the TGI in the experiment on SK-MEL-28 melanoma, in the experiment with A498 renal, in the experiment on HCT-15 colon, in the experiment with SK-OV-3 ovarian, with HCT-116 colon and in the experiment on M14 melanoma was greater than 100 µM each time. Further, the TGI with HL-60(TB) leukemia, in the experiment with UACC-257 melanoma, with SF-295 CNS and in the experiment on BT-549 breast was greater than 100 µM each time.

With `CCn1c(-c2nonc2N)nc2cncc(C(=O)N3CCNCC3)c21`, the GI50 with SK-MEL-28 melanoma, with A498 renal, with HCT-15 colon, with SK-OV-3 ovarian, in the experiment with HCT-116 colon and in the experiment on M14 melanoma was greater than 25 µM throughout. Besides, the GI50 with HL-60(TB) leukemia, with UACC-257 melanoma, in the experiment on SF-295 CNS and with BT-549 breast was greater than 25 µM throughout. Besides, the TGI in the experiment with SK-MEL-28 melanoma, with A498 renal, in the experiment with HCT-15 colon, with SK-OV-3 ovarian, with HCT-116 colon and in the experiment with M14 melanoma was greater than 25 µM throughout. Further, the TGI in the experiment on HL-60(TB) leukemia, in the experiment on UACC-257 melanoma, in the experiment with SF-295 CNS and in the experiment on BT-549 breast was greater than 25 µM throughout.

For the compound `CCc1c(C)[nH]c(/C=C2\N=C(c3ccc[nH]3)C=C2OC)c1C`, the GI50 in the experiment with SK-MEL-28 melanoma was 0.365 µM; with A498 renal, 6.87 µM; with HCT-15 colon, 0.0935 µM; with SK-OV-3 ovarian, 2.95 µM; with HCT-116 colon, less than 0.0462 µM; with M14 melanoma, 0.256 µM. The GI50 in the experiment with HL-60(TB) leukemia was 0.127 µM; with UACC-257 melanoma it was 0.432 µM; in the experiment on SF-295 CNS, 0.747 µM; with BT-549 breast it was 0.129 µM. Further, the TGI with SK-MEL-28 melanoma was 1.87 µM; with A498 renal it was 21.5 µM; with HCT-15 colon, 3.75 µM; with SK-OV-3 ovarian it was 13.5 µM; in the experiment on M14 melanoma it was 2.99 µM; in the experiment with HL-60(TB) leukemia, 2.1 µM. The TGI is 2.65 µM with UACC-257 melanoma, 3.03 µM with SF-295 CNS and 3.87 µM with BT-549 breast.

With `Cc1cc(N2CCCCC2)nc(N(CCNc2ccnc3cc(Cl)ccc23)Cc2ccco2)n1`, the GI50 with SK-MEL-28 melanoma is 1.83 µM; with A498 renal, 1.92 µM; in the experiment with HCT-15 colon, 1.44 µM; in the experiment on SK-OV-3 ovarian, 2.15 µM; with HCT-116 colon, 1.41 µM; with M14 melanoma, 1.82 µM. The GI50 in the experiment with HL-60(TB) leukemia was 1.91 µM; in the experiment on UACC-257 melanoma, 2.35 µM; with SF-295 CNS, 1.51 µM; in the experiment with BT-549 breast, 1.82 µM. Also, the TGI with SK-MEL-28 melanoma was 3.75 µM; with A498 renal it was 5.09 µM; with HCT-15 colon it was 3.3 µM; in the experiment with SK-OV-3 ovarian, 4.9 µM; in the experiment with HCT-116 colon, 2.84 µM; in the experiment with M14 melanoma, 3.61 µM. The TGI came out at 3.94 µM in the experiment with HL-60(TB) leukemia, 5.79 µM in the experiment with UACC-257 melanoma, 3.12 µM in the experiment with SF-295 CNS and 3.5 µM in the experiment on BT-549 breast.

With `O=c1cc(CNc2cc(F)cc(F)c2)c2ccc(I)cc2[nH]1`, the GI50 in the experiment on SK-MEL-28 melanoma was greater than 67.3 µM; with A498 renal it was 0.279 µM; with HCT-15 colon, 0.387 µM; in the experiment with SK-OV-3 ovarian it was 1.11 µM; in the experiment with HCT-116 colon, 0.492 µM; with M14 melanoma, 0.52 µM. In addition, the GI50 in the experiment on HL-60(TB) leukemia was 0.337 µM; in the experiment with UACC-257 melanoma, greater than 100 µM; in the experiment on SF-295 CNS, 0.441 µM; with BT-549 breast, 1.02 µM. The TGI in the experiment with SK-MEL-28 melanoma is greater than 100 µM; in the experiment on HCT-15 colon, greater than 100 µM; with SK-OV-3 ovarian, greater than 100 µM; with HCT-116 colon it was greater than 100 µM; with M14 melanoma, greater than 100 µM; in the experiment with HL-60(TB) leukemia it was greater than 51.1 µM. In addition, the TGI in the experiment on UACC-257 melanoma, in the experiment on SF-295 CNS and in the experiment with BT-549 breast was greater than 100 µM throughout.

For `COc1cc2nc(Cl)nc(Nc3cccc(C(=O)/C=C/c4ccccc4)c3)c2cc1OC`, the GI50 with SK-MEL-28 melanoma was 5.03 µM; with A498 renal, greater than 25 µM; in the experiment on HCT-15 colon, 2.88 µM; in the experiment with SK-OV-3 ovarian, 7.96 µM; in the experiment on HCT-116 colon, 1.62 µM; with M14 melanoma, 5.01 µM. Moreover, the GI50 was 3.61 µM in the experiment with HL-60(TB) leukemia, greater than 31.2 µM in the experiment on UACC-257 melanoma and 2.36 µM with BT-549 breast. The TGI with SK-MEL-28 melanoma was greater than 100 µM; with A498 renal, greater than 66.5 µM; in the experiment on HCT-15 colon, greater than 100 µM; in the experiment with SK-OV-3 ovarian it was 51.7 µM; in the experiment with HCT-116 colon, 5.16 µM; with M14 melanoma, greater than 100 µM. The TGI with HL-60(TB) leukemia is greater than 100 µM; in the experiment on UACC-257 melanoma, greater than 100 µM; with SF-295 CNS, greater than 44.2 µM; with BT-549 breast it was 7.83 µM.

`NC(=O)[C@H]1CCN(c2ncnc(N)c2F)C[C@@H]1N1CCC[C@@H](Nc2cc(Cl)cc(C(F)(F)F)c2)C1=O`: the GI50 was 18.5 µM in the experiment on SK-MEL-28 melanoma; 3.25 µM with A498 renal; 15.1 µM in the experiment with HCT-15 colon; 6.33 µM in the experiment with SK-OV-3 ovarian; 15.5 µM in the experiment on HCT-116 colon; 12.8 µM in the experiment on M14 melanoma. Besides, the GI50 in the experiment on HL-60(TB) leukemia is 20.5 µM; in the experiment with UACC-257 melanoma it was 20.3 µM; with SF-295 CNS it was 17.1 µM; in the experiment on BT-549 breast, 21.4 µM. The TGI with SK-MEL-28 melanoma stood at 44.3 µM; with A498 renal, 18.7 µM; with HCT-15 colon, 48.2 µM; in the experiment on SK-OV-3 ovarian, 56.3 µM; in the experiment on HCT-116 colon, 43 µM; in the experiment with M14 melanoma, 36.8 µM. For the same compound, the TGI with HL-60(TB) leukemia is 42.5 µM; in the experiment with UACC-257 melanoma it was 59.7 µM; with SF-295 CNS, 41.8 µM; with BT-549 breast, 51.1 µM.

In the case of `CCN(CC)c1ccc(/C=C/c2cc(C)c3ccccc3n2)cc1`, the GI50 in the experiment with SK-MEL-28 melanoma was 6.75 µM; with A498 renal, 2.32 µM; with HCT-15 colon it was 2.27 µM; in the experiment with SK-OV-3 ovarian it was 3.41 µM; with HCT-116 colon, 4.06 µM; with M14 melanoma it was 3.42 µM. Further, the GI50 in the experiment with HL-60(TB) leukemia is 3.42 µM; in the experiment with UACC-257 melanoma it was 5.18 µM; with SF-295 CNS, 1.8 µM; in the experiment with BT-549 breast it was 10.3 µM. Moreover, the TGI with SK-MEL-28 melanoma was greater than 100 µM; in the experiment on A498 renal, 15.4 µM; in the experiment on HCT-15 colon, 26.4 µM; with SK-OV-3 ovarian, 17.8 µM; with HCT-116 colon, 16.4 µM; with M14 melanoma, 13.6 µM. Further, the TGI came to 27.8 µM in the experiment on HL-60(TB) leukemia, 42.8 µM with UACC-257 melanoma, 5.72 µM with SF-295 CNS and 62.9 µM with BT-549 breast.
